Assay results as given in ChEMBL document CHEMBL1201862, “PubChem BioAssay data set” (2004).
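Growth conditions: 96-well plates. Treatment: test compound, 48 hours, 5 concentrations. Analysis: linear interpolation between bracketing concentrations; unreached endpoints set to highest concentration. GI50 is the concentration that inhibits growth by half.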 Active and inactive are the calls of the source. No stated cut-off is given here; in the data, active = GI50 up to about 1.1 µM and inactive = higher.

Key:
Test in all cases: NCI anticancer screen, dose series, 48 h
SNB-75 = system: SNB-75
KM12 = system: KM12
COLO 205 = system: COLO 205
OVCAR-4 = system: OVCAR-4
SF-295 = system: SF-295
SK-MEL-5 = system: SK-MEL-5
NCI-H226 = system: NCI-H226
M14 = system: M14
UACC-62 = system: UACC-62
HCT-116 = system: HCT-116
M19-MEL = system: M19-MEL
Malme-3M = system: Malme-3M
OVCAR-8 = system: OVCAR-8
KM-20L2 = system: KM-20L2
A549 = system: A549
EKVX = system: EKVX
HT-29 = system: HT-29
SW-620 = system: SW-620
TK-10 = system: TK-10
CCRF-CEM = system: CCRF-CEM
SNB-78 = system: SNB-78
RPMI-8226 = system: RPMI-8226
U-251 = system: U-251
NCI-H522 = system: NCI-H522
XF498 = system: XF498
NCI-H460 = system: NCI-H460
HCT-15 = system: HCT-15
SK-MEL-28 = system: SK-MEL-28
LXFL 529 = system: LXFL 529
NCI-H23 = system: NCI-H23
DMS-273 = system: DMS-273
K562 = system: K562
SK-OV-3 = system: SK-OV-3
SN12C = system: SN12C
UACC-257 = system: UACC-257
SK-MEL-2 = system: SK-MEL-2
786-0 = system: 786-0
UO-31 = system: UO-31
MOLT-4 = system: MOLT-4
SNB-19 = system: SNB-19
RXF 393 = system: RXF 393
SF-268 = system: SF-268
HOP-62 = system: HOP-62
ACHN = system: ACHN
LOX IMVI = system: LOX IMVI
HL-60 = system: HL-60
SR = system: SR
HOP-18 = system: HOP-18
OVCAR-3 = system: OVCAR-3
IGROV-1 = system: IGROV-1
DLD-1 = system: DLD-1
A498 = system: A498
SF-539 = system: SF-539
CAKI-1 = system: CAKI-1
HCC 2998 = system: HCC 2998
DMS-114 = system: DMS-114
OVCAR-5 = system: OVCAR-5
MCF7 = system: MCF7
HOP-92 = system: HOP-92
NCI/ADR-RES = system: NCI/ADR-RES

## O=C(CSc1nnc(Cc2ccccc2)o1)Nc1ccc(Cl)cc1[N+](=O)[O-]
SNB-75
  GI50: 18.9 µM (inactive)
KM12
  GI50: > 10 µM (inactive)
COLO 205
  GI50: 21.9 µM (inactive)
OVCAR-4
  GI50: 18.8 µM (inactive)
SF-295
  GI50: 18.7 µM (inactive)
SK-MEL-5
  GI50: 16.9 µM (inactive)
NCI-H226
  GI50: 21.2 µM (inactive)
M14
  GI50: 16.5 µM (inactive)
UACC-62
  GI50: 14.2 µM (inactive)
HCT-116
  GI50: 14 µM (inactive)
M19-MEL
  GI50: 17 µM (inactive)
Malme-3M
  GI50: 16.4 µM (inactive)
OVCAR-8
  GI50: 29.8 µM (inactive)
KM-20L2
  GI50: 22.5 µM (inactive)
A549
  GI50: 18.9 µM (inactive)
EKVX
  GI50: 20.3 µM (inactive)
HT-29
  GI50: 22.3 µM (inactive)
SW-620
  GI50: 25.1 µM (inactive)
TK-10
  GI50: 17.1 µM (inactive)
CCRF-CEM
  GI50: 15.6 µM (inactive)
SNB-78
  GI50: 20 µM (inactive)
RPMI-8226
  GI50: 17.9 µM (inactive)
U-251
  GI50: 19.5 µM (inactive)
NCI-H522
  GI50: 3.17 µM (inactive)
XF498
  GI50: 17.5 µM (inactive)
NCI-H460
  GI50: > 10 µM (inactive)
HCT-15
  GI50: 16.5 µM
SK-MEL-28
  GI50: 15.5 µM (inactive)
LXFL 529
  GI50: 17.1 µM (inactive)
NCI-H23
  GI50: 17.4 µM (inactive)
DMS-273
  GI50: 19.7 µM (inactive)
K562
  GI50: 25.6 µM (inactive)
SK-OV-3
  GI50: 34.5 µM (inactive)
SN12C
  GI50: 17.5 µM (inactive)
UACC-257
  GI50: 19.9 µM (inactive)
SK-MEL-2
  GI50: 15.9 µM (inactive)
786-0
  GI50: 16.5 µM (inactive)
UO-31
  GI50: 18.4 µM (inactive)
MOLT-4
  GI50: 18.9 µM (inactive)
SNB-19
  GI50: 14.4 µM (inactive)
RXF 393
  GI50: 19.2 µM (inactive)
SF-268
  GI50: 21.5 µM (inactive)
HOP-62
  GI50: 17.4 µM (inactive)
ACHN
  GI50: 12.6 µM (inactive)
LOX IMVI
  GI50: 13.1 µM (inactive)
HL-60
  GI50: 24.7 µM (inactive)
SR
  GI50: 26.2 µM (inactive)
HOP-18
  GI50: 14.7 µM (inactive)

## O=S(O)CCCSSCCCCSSCCCS(=O)O
SNB-75
  GI50: 66.8 µM (inactive)
KM12
  GI50: > 100 µM (inactive)
COLO 205
  GI50: > 100 µM (inactive)
OVCAR-4
  GI50: > 100 µM (inactive)
SF-295
  GI50: > 100 µM (inactive)
SK-MEL-5
  GI50: > 100 µM (inactive)
M14
  GI50: > 100 µM (inactive)
OVCAR-3
  GI50: > 100 µM (inactive)
IGROV-1
  GI50: > 100 µM (inactive)
UACC-62
  GI50: > 100 µM (inactive)
HCT-116
  GI50: > 100 µM (inactive)
M19-MEL
  GI50: > 100 µM (inactive)
Malme-3M
  GI50: > 100 µM (inactive)
OVCAR-8
  GI50: > 100 µM (inactive)
KM-20L2
  GI50: > 100 µM (inactive)
A549
  GI50: > 100 µM (inactive)
EKVX
  GI50: 34.4 µM (inactive)
DLD-1
  GI50: > 100 µM (inactive)
HT-29
  GI50: > 100 µM (inactive)
A498
  GI50: > 100 µM (inactive)
SW-620
  GI50: > 100 µM (inactive)
SF-539
  GI50: > 100 µM (inactive)
TK-10
  GI50: > 100 µM (inactive)
CCRF-CEM
  GI50: > 100 µM (inactive)
SNB-78
  GI50: > 100 µM (inactive)
U-251
  GI50: > 100 µM (inactive)
NCI-H522
  GI50: > 100 µM (inactive)
XF498
  GI50: > 100 µM (inactive)
NCI-H460
  GI50: > 100 µM (inactive)
HCT-15
  GI50: > 100 µM
SK-MEL-28
  GI50: > 100 µM (inactive)
LXFL 529
  GI50: > 100 µM (inactive)
NCI-H23
  GI50: > 100 µM (inactive)
DMS-273
  GI50: > 100 µM (inactive)
CAKI-1
  GI50: > 100 µM (inactive)
K562
  GI50: > 100 µM (inactive)
HCC 2998
  GI50: > 100 µM (inactive)
SK-OV-3
  GI50: > 100 µM (inactive)
SN12C
  GI50: > 100 µM (inactive)
UACC-257
  GI50: > 100 µM (inactive)
SK-MEL-2
  GI50: > 100 µM (inactive)
786-0
  GI50: > 100 µM (inactive)
UO-31
  GI50: > 100 µM (inactive)
MOLT-4
  GI50: 26.7 µM (inactive)
DMS-114
  GI50: > 100 µM (inactive)
OVCAR-5
  GI50: > 100 µM (inactive)
SNB-19
  GI50: > 100 µM (inactive)
RXF 393
  GI50: > 100 µM (inactive)
SF-268
  GI50: > 100 µM (inactive)
HOP-62
  GI50: > 100 µM (inactive)
ACHN
  GI50: > 100 µM (inactive)
LOX IMVI
  GI50: > 100 µM (inactive)
HOP-18
  GI50: > 100 µM (inactive)

## O=[N+]([O-])c1ccc2[nH]c3c(-c4ccccc4)nccc3c2c1
SNB-75
  GI50: 11.7 µM (inactive)
KM12
  GI50: 34.8 µM (inactive)
COLO 205
  GI50: 34.2 µM (inactive)
OVCAR-4
  GI50: 10.5 µM (inactive)
SF-295
  GI50: 18 µM (inactive)
SK-MEL-5
  GI50: 15.4 µM (inactive)
NCI-H226
  GI50: 9.75 µM (inactive)
OVCAR-3
  GI50: 14.3 µM (inactive)
IGROV-1
  GI50: 7.03 µM (inactive)
UACC-62
  GI50: 14.8 µM (inactive)
HCT-116
  GI50: 17.1 µM (inactive)
M19-MEL
  GI50: 25.9 µM (inactive)
Malme-3M
  GI50: 18.9 µM (inactive)
OVCAR-8
  GI50: 22 µM (inactive)
KM-20L2
  GI50: 27.6 µM (inactive)
A549
  GI50: 15.6 µM (inactive)
EKVX
  GI50: 21.1 µM (inactive)
DLD-1
  GI50: 3.73 µM (inactive)
HT-29
  GI50: 10.7 µM (inactive)
A498
  GI50: 82.6 µM (inactive)
SW-620
  GI50: 36 µM (inactive)
SF-539
  GI50: 63 µM (inactive)
CCRF-CEM
  GI50: 4.09 µM (inactive)
SNB-78
  GI50: 31 µM (inactive)
RPMI-8226
  GI50: 0.796 µM (active)
U-251
  GI50: 19.5 µM (inactive)
NCI-H522
  GI50: 14.3 µM (inactive)
XF498
  GI50: 29.4 µM (inactive)
NCI-H460
  GI50: 14.4 µM (inactive)
HCT-15
  GI50: 8.59 µM
SK-MEL-28
  GI50: 29.2 µM (inactive)
NCI-H23
  GI50: 32.1 µM (inactive)
DMS-273
  GI50: 11.9 µM (inactive)
K562
  GI50: 1.71 µM (inactive)
HCC 2998
  GI50: 19.5 µM (inactive)
SK-OV-3
  GI50: 12.9 µM (inactive)
SN12C
  GI50: 25.1 µM (inactive)
UACC-257
  GI50: 30 µM (inactive)
MCF7
  GI50: 24.8 µM (inactive)
SK-MEL-2
  GI50: 35 µM (inactive)
HOP-92
  GI50: 16.3 µM (inactive)
UO-31
  GI50: 4.41 µM (inactive)
MOLT-4
  GI50: 2.31 µM (inactive)
DMS-114
  GI50: 18.9 µM (inactive)
NCI/ADR-RES
  GI50: 16 µM (inactive)
OVCAR-5
  GI50: 67.8 µM (inactive)
SNB-19
  GI50: 15.3 µM (inactive)
RXF 393
  GI50: 25.4 µM (inactive)
SF-268
  GI50: 25 µM (inactive)
HOP-62
  GI50: 14.7 µM (inactive)
LOX IMVI
  GI50: 16.9 µM (inactive)
HL-60
  GI50: 6 µM (inactive)
HOP-18
  GI50: 18 µM (inactive)
